Here are results for 13 compounds from patent publication US9156877B2, “17-hydroxy-17-pentafluorethyl-estra-4,9(10)-dien-11-benzylidene derivatives, methods for the production thereof and use thereof for treating diseases” (Bayer Intellectual Property GmbH, priority 2009, dated 2015).

In assay [1] the target is T1, human progesterone receptor A (Homo sapiens, UniProt P06401).
T1 construct: expressed in transfected cells; host or cells: SK-N-MC human neuroblastoma cells, stably transfected with pRChPR-A-neo and pMMTV-LUC
T1 sequence (P06401 1-769 isoform P06401-2): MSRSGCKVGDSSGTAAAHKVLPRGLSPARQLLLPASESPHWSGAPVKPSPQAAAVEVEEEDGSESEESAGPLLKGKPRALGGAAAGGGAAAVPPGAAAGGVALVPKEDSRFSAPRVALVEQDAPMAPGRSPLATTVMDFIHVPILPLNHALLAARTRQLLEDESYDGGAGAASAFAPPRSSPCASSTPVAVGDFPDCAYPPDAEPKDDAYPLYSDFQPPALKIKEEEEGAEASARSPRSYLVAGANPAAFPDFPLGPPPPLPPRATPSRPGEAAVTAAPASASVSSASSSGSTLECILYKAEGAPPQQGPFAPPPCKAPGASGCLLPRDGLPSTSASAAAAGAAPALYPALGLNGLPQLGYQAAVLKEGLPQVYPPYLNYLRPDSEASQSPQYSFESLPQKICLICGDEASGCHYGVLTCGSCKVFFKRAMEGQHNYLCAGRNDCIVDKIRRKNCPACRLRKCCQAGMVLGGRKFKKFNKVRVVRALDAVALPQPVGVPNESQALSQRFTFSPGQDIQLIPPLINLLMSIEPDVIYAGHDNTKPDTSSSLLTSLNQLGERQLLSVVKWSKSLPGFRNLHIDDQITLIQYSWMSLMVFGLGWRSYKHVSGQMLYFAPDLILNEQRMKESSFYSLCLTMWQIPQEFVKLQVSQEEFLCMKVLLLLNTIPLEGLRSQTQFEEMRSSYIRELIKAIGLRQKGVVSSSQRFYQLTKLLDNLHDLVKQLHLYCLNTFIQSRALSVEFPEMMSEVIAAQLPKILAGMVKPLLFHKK
In words: Progesterone receptor-antagonistic action in stably transfected SK-N-MC cells with MMTV-LUC reporter (PR-A). The assay is classed as cell-based. The following applies: antagonistic potency against 0.1 nmol/l promegestone, 24 hours, luciferase. The method, then: (§1) Determination of Progesterone Receptor-Antagonistic Action in Stable Transfectants of Human Neuroblastoma Cells (SK-N-MC Cells) with the Human Progesterone A or Progesterone B Receptor and an MN-LUC Reporter Construct
(§2) SK-N-MC cells (human neuroblastoma cells) which have been stably transfected with plasmids expressing the human progesterone receptor B (pRChPR-B-neo) or the human progesterone receptor A (pRChPR-A-neo) and a reporter construct (pMMTV-LUC) were incubated for 24 hours either in the absence (negative control) or in the presence of ascending amounts of the particular test compound (0.01 nmol/l, 0.1 nmol/l, 1 nmol/l, 10 nmol/l, 100 nmol/l and […]), in order to determine the agonistic efficacy. As a positive control of the reporter gene induction, the cells were treated with the synthetic gestagen promegestone (0.01 nmol/l, 0.1 nmol/l, 1 nmol/l, 10 nmol/l, 100 nmol/l and […]). To determine the antagonistic activity, the cells were treated with 0.1 nmol/l promegestone and additionally with ascending amounts of the particular test compound (0.01 nmol/l, 0.1 nmol/l, 1 nmol/l, 10 nmol/l, 100 nmol/l and […]). The activity of the reporter gene LUC (LUC=luciferase) was determined in the cell lysates and measured as RLU (relative light units). All measurements are reported as % efficacy and as EC50 and IC50 concentrations.

The target of assay [2] is T2, human progesterone receptor B (Homo sapiens, UniProt P06401).
T2 construct: expressed in transfected cells; host or cells: SK-N-MC human neuroblastoma cells, stably transfected with pRChPR-B-neo and pMMTV-LUC
T2 sequence (P06401 1-933): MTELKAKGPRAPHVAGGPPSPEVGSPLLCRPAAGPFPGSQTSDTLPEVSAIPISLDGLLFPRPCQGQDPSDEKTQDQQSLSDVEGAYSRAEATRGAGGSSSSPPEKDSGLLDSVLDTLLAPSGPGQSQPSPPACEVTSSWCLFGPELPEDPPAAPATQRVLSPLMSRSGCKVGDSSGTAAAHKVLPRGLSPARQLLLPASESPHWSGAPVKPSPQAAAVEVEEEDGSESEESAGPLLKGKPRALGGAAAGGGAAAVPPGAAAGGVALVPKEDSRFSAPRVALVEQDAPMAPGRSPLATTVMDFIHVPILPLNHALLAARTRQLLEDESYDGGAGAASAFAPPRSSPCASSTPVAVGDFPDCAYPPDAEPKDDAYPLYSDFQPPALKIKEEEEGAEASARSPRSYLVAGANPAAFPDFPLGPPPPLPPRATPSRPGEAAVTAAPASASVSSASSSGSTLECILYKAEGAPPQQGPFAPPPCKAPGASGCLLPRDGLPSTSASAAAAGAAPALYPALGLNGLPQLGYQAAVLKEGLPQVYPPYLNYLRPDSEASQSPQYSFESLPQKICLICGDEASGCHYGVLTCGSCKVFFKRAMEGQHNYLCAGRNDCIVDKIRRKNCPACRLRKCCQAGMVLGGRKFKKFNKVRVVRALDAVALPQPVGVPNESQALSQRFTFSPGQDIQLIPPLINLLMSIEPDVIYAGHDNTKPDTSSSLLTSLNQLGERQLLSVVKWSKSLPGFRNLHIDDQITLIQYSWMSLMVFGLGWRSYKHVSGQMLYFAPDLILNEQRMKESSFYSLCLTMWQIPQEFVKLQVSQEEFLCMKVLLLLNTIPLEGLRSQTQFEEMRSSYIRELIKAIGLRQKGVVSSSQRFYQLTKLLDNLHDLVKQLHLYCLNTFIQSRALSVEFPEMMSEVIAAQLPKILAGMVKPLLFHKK
In words: Progesterone receptor-antagonistic action in stably transfected SK-N-MC cells with MMTV-LUC reporter (PR-B). The assay is classed as cell-based. The following applies: antagonistic potency against 0.1 nmol/l promegestone, 24 hours, luciferase. As for the experimental part:
as §1, §2

As for `COC(=O)c1cccc(/C=C/c2ccc([C@H]3C[C@@]4(C)[C@@H](CC[C@@]4(O)C(F)(F)C(F)(F)F)[C@@H]4CCC5=CC(=O)CCC5=C43)cc2)c1` [Example 30, 3-{(E)-2-[4-((8S,11R,13S,14S,17S)-17-hydroxy-13-methyl-3-oxo-17-pentafluoroethyl-2,3,6,7,8,11,12,13,14,15,16,17-dodecahydro-1H-cyclopenta[a]phenanthren-11-yl)phenyl]vinyl}benzoic acid methyl ester], the IC50 in assay [1] was 0.09 nM; in assay [2] it was 0.08 nM.
With `COC(=O)c1ccc(/C=C/c2ccc([C@H]3C[C@@]4(C)[C@@H](CC[C@@]4(O)C(F)(F)C(F)(F)F)[C@@H]4CCC5=CC(=O)CCC5=C43)cc2)cc1` [Example 31, 4-{(E)-2-[4-((8S,11R,13S,14S,17S)-17-hydroxy-13-methyl-3-oxo-17-pentafluoroethyl-2,3,6,7,8,11,12,13,14,15,16,17-dodecahydro-1H-cyclopenta[a]phenanthren-11-yl)phenyl]vinyl}benzoic acid methyl ester], the results for the IC50 in assay [1] and in assay [2] were 0.09 nM and 0.1 nM, respectively.
`C[C@]12C[C@H](c3ccc(/C=C/c4ccc(S(C)(=O)=O)cc4)cc3)C3=C4CCC(=O)C=C4CC[C@H]3[C@@H]1CC[C@@]2(O)C(F)(F)C(F)(F)F` [Example 32, (8S,11R,13S,14S,17S)-17-hydroxy-11-{4-[(E)-2-(4-methanesulphonylphenyl)vinyl]phenyl}-13-methyl-17-pentafluoroethyl-1,2,6,7,8,11,12,13,14,15,16,17-dodecahydrocyclopenta[a]phenanthren-3-one]: the IC50 in assay [1] and in assay [2] was 0.01 nM in each case.
As to `CSc1ccc(/C=C/c2ccc([C@H]3C[C@@]4(C)[C@@H](CC[C@@]4(O)C(F)(F)C(F)(F)F)[C@@H]4CCC5=CC(=O)CCC5=C43)cc2)cc1` [Example 33, (8S,11R,13S,14S,17S)-17-hydroxy-13-methyl-11-{4-[(E)-2-(4-methylsulphanylphenyl)vinyl]phenyl}-17-pentafluoroethyl-1,2,6,7,8,11,12,13,14,15,16,17-dodecahydrocyclopenta[a]phenanthren-3-one], the IC50 in assay [1] was determined as 0.1 nM; in assay [2] it was 0.8 nM.
Regarding `C[C@]12C[C@H](c3ccc(/C=N/OCC(=O)O)cc3)C3=C4CCC(=O)C=C4CC[C@H]3[C@@H]1CC[C@@]2(O)C(F)(F)C(F)(F)F` [Example 34, [1-[4-((8S,11R,13S,14S,17S)-17-hydroxy-13-methyl-3-oxo-17-pentafluoroethyl-2,3,6,7,8,11,12,13,14,15,16,17-dodecahydro-1H-cyclopenta[a]phenanthren-11-yl)phenyl]meth-(E)-ylideneaminooxy]acetic acid], the IC50 turned out to be 3.9 nM in assay [1] and 2.8 nM in assay [2].
Taken in the same sequence, the figures for `C[C@]12C[C@H](c3ccc(C=NOCc4ccccc4)cc3)C3=C4CCC(=O)C=C4CC[C@H]3[C@@H]1CC[C@@]2(O)C(F)(F)C(F)(F)F` [Example 35, 4-((8S,11R,13S,14S,17S)-17-hydroxy-13-methyl-3-oxo-17-pentafluoroethyl-2,3,6,7,8,11,12,13,14,15,16,17-dodecahydro-1H-cyclopenta[a]phenanthren-11-yl)benzaldehyde O-benzyl oxime] were 0.1 nM and 0.09 nM.
Taken in the same sequence, the figures for `C[C@]12C[C@H](c3ccc(/C=N/OCc4ccc(Cl)c(Cl)c4)cc3)C3=C4CCC(=O)C=C4CC[C@H]3[C@@H]1CC[C@@]2(O)C(F)(F)C(F)(F)F` [Example 37, 4-((8S,11R,13S,14S,17S)-17-hydroxy-13-methyl-3-oxo-17-pentafluoroethyl-2,3,6,7,8,11,12,13,14,15,16,17-dodecahydro-1H-cyclopenta[a]phenanthren-11-yl)benzaldehyde O-(3,4-dichlorobenzyl)oxime] were 0.4 nM and 0.5 nM.
Take `CC(C)CO/N=C/c1ccc([C@H]2C[C@@]3(C)[C@@H](CC[C@@]3(O)C(F)(F)C(F)(F)F)[C@@H]3CCC4=CC(=O)CCC4=C32)cc1` [Example 38, 4-((8S,11R,13S,14S,17S)-17-hydroxy-13-methyl-3-oxo-17-pentafluoroethyl-2,3,6,7,8,11,12,13,14,15,16,17-dodecahydro-1H-cyclopenta[a]phenanthren-11-yl)benzaldehyde O-isobutyl oxime]: the figures for the IC50 in assay [1] and in assay [2] were 0.09 nM and 0.1 nM, respectively.
Taken in the same sequence, the figures for `CC(C)(C)NC(=O)NC/C=C/c1ccc([C@H]2C[C@@]3(C)C(CC[C@@]3(O)C(F)(F)C(F)(F)F)C3CCC4=CC(=O)CCC4=C32)cc1` (some centres unmarked) [Example 41] were 0.1 nM and 0.1 nM.
Taken in the same sequence, the figures for `C[C@]12C[C@H](c3ccc(/C=C/CNC(=O)Nc4ccc(F)cc4)cc3)C3=C4CCC(=O)C=C4CC[C@H]3[C@@H]1CC[C@@]2(O)C(F)(F)C(F)(F)F` [Example 44, 1-(4-fluorophenyl)-3-{(E)-3-[4-((8S,11R,13S,14S,17S)-17-hydroxy-13-methyl-3-oxo-17-pentafluoroethyl-2,3,6,7,8,11,12,13,14,15,16,17-dodecahydro-1H-cyclopenta[a]phenanthren-11-yl)phenyl]allyl}urea] were 0.1 nM and 0.1 nM.
`Cc1ccc(NC(=O)NC/C=C/c2ccc([C@H]3C[C@@]4(C)[C@@H](CC[C@@]4(O)C(F)(F)C(F)(F)F)[C@@H]4CCC5=CC(=O)CCC5=C43)cc2)cc1` [Example 45, 1-{(E)-3-[4-((8S,11R,13S,14S,17S)-17-hydroxy-13-methyl-3-oxo-17-pentafluoroethyl-2,3,6,7,8,11,12,13,14,15,16,17-dodecahydro-1H-cyclopenta[a]phenanthren-11-yl)phenyl]allyl}-3-p-tolylurea]: the IC50 in assay [1] and in assay [2] was 0.1 nM throughout.
For `C[C@]12C[C@H](c3ccc(/C=C/CNC(=O)NCc4ccccc4)cc3)C3=C4CCC(=O)C=C4CC[C@H]3[C@@H]1CC[C@@]2(O)C(F)(F)C(F)(F)F` [Example 46, 1-benzyl-3-{(E)-3-[4-((8S,11R,13S,14S,17S)-17-hydroxy-13-methyl-3-oxo-17-pentafluoroethyl-2,3,6,7,8,11,12,13,14,15,16,17-dodecahydro-1H-cyclopenta[a]phenanthren-11-yl)phenyl]allyl}urea], the values for the IC50 in assay [1] and in assay [2] were 0.07 nM and 0.09 nM, respectively.
`CC(C)(C)c1ccc(NC(=O)NC/C=C/c2ccc([C@H]3C[C@@]4(C)C(CC[C@@]4(O)C(F)(F)C(F)(F)F)C4CCC5=CC(=O)CCC5=C43)cc2)cc1` (some centres unmarked) [Example 47]: the IC50 in assay [1] turned out to be 0.8 nM; in assay [2], 0.3 nM.

In general, IC50 refers to the concentration that inhibits the measured activity by half. The low end stands for higher potency, the high end for lower potency.
